What is called IC50 is the concentration that gives 50% inhibition. What is called Kd is a measure of binding affinity in units of concentration. The low end stands for higher affinity, the high end for lower affinity.

Test [1] concerns STAT1/3 through TYK2/JAK1. Kind of test: IFNa induced STAT phosphorylation in HEK293 cells (SIE-bla reporter gene). Format: cell-based. The note with it: Homo sapiens, HEK293; HEK293T-sie-bla cells, IFNa at EC80, 4 hours; read-out: Inhibition of IFNa induced STAT phosphorylation HEK293 cells IC50. As for the experimental part:
Stimulation of HEK293T-sie-bla cells with interferon alpha (INFa) activates the signaling pathway of STAT1/3 through TYK2/JAK1. In this assay, measurement of the activity of the reporter gene […]-lactamase expression was used as the readout.
CellSensorTM SIE-bla HEK293T cell line were purchased from Thermo Fisher Scientific (ref. #K1649B) and cultured as specified by the provider. A number of 30.000 cells per well (40 µl) were plated in a 384-well plate (Corning ref.# 3712) and cultured overnight at 37°C with 5% CO2 in a complete Optimem media (ThermoFisher ref. #11058-021) containing 0.5% (v/v) heat inactivated dialyzed FBS (Life Technologies ref. #26400044), 10 µM non-essential aminoacids NEAA (Sigma ref. #M7145), 100 µM Sodium Pyruvate (Gibco ref. #11360-039) and 100 U/mL Penicillin (Sigma ref. #P0781). Compounds were initially dissolved in 100% DMSO. Compound curves were then prepared using a 1/5 serial dilution (10 dilutions). The dilutions were directly diluted in complete Optimem media at 40-fold their final concentration in 20% DMSO. IFNa initial solution (R&D systems ref. #11100-1) was prepared at 10-fold its EC80 in complete Optimem media. Compounds and IFNa were added simultaneously to the wells with cells and incubated during 4 hours at 37°C (the final DMSO was 0.1%). The […]-lactamase substrate (LifeTechnologies ref.#K1138) was prepared at 6-fold its final concentration as specified by the provider. Then 10 µL of the mixture was added to the wells to stop the stimulation. Plate was left in the dark over-night. Then a FRET reading was performed on an appropriate plate reader.
All experiments were analysed using an ExcelFit template and the four-parameter log equation. […] TABLE 2: IC50 Inhibitions of IFNa induced STAT phosphorylation in HEK293 cells

Test [2] has as its target T1, TYK2 (JH2domain-pseudokinase) (Homo sapiens, UniProt P29597).
T1 construct: TYK2 (JH2domain-pseudokinase)-tagged T7 phage strains were prepared in an E. coli host derived from the BL21 strain; made in house; host or cells: E. coli BL21-derived host (T7 phage) or HEK-293 cells
Kind of test: TYK2 JH2 domain binding assay (KINOMEscan). The method, then: TYK2 (JH2domain-pseudokinase) KINOMEscan assay. For the assay, TYK2 (JH2domain-pseudokinase)-tagged T7 phage strains were prepared in an E. coli host derived from the BL21 strain.E. coli were grown to log-phase and infected with T7 phage and incubated with shaking at 32°C until lysis. The lysates were centrifuged and filtered to remove cell debris. The remaining TYK2 (JH2domain-pseudokinase) were produced in HEK-293 cells and subsequently tagged with DNA for qPCR detection. Streptavidin-coated magnetic beads were treated with biotinylated small molecule ligands for 30 minutes at room temperature to generate affinity resins for kinase assays. The liganded beads were blocked with excess biotin and washed with blocking buffer (SeaBlock (Pierce), 1% BSA, 0.05% Tween 20, 1 mM DTT) to remove unbound ligand and to reduce non-specific binding. Binding reactions were assembled by combining TYK2 (JH2domain-pseudokinase), liganded affinity beads, and test compounds in 1x binding buffer (20% SeaBlock, 0.17x PBS, 0.05% Tween 20, 6 mM DTT). Test compounds were prepared as 111X stocks in 100% DMSO. Kds were determined using an 11-point 3-fold compound dilution series with three DMSO control points. All compounds for Kd measurements are distributed by acoustic transfer (non-contact dispensing) in 100% DMSO. The compounds were then diluted directly into the assays such that the final concentration of DMSO was 0.9%. All reactions performed in polypropylene 384-well plate. Each was a final volume of 0.02 ml. The assay plates were incubated at room temperature with shaking for 1 hour and the affinity beads were washed with wash buffer (1x PBS, 0.05% Tween 20). The beads were then re-suspended in elution buffer (1x PBS, 0.05% Tween 20, 0.5 µM non-biotinylated affinity ligand) and incubated at room temperature with shaking for 30 minutes. The kinase concentration in the eluates was measured by qPCR. […]
An 11-point 3-fold serial dilution of each test compound was prepared in 100% DMSO at 100x final test concentration and subsequently diluted to 1x in the assay (final DMSO concentration = 1%). Most Kds were determined using a compound top concentration = 30,000 nM. If the initial Kd determined was < 0.5 nM (the lowest concentration tested), the measurement was repeated with a serial dilution starting at a lower top concentration.
Curves were fitted using a non-linear least square fit with the Levenberg-Marquardt algorithm. […] TABLE 1: Kd Affinities for Tyk2 JH2 Domain Binding Assay.

T1 sequence (P29597 589-875 limits assumed): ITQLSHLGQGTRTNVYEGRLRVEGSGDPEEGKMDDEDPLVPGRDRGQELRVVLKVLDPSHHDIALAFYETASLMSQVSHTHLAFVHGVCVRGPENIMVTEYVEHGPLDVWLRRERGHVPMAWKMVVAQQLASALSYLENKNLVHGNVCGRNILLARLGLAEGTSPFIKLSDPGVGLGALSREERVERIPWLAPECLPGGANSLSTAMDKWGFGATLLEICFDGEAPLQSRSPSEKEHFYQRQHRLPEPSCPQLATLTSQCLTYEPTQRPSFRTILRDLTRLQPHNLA

Turning to `CN(c1ccccc1Nc1cc(Nc2ncn(C)n2)ncn1)S(C)(=O)=O` [Example 13, N-methyl-N-[2-[[6-[(1-methyl-1,2,4-triazol-3-yl)amino]pyrimidin-4-yl]amino]phenyl]methanesulfonamide], the IC50 in test [1] is greater than 1000 nM. This molecule also had a dissociation constant Kd in test [2] greater than 10 nM.
For `CN(c1ccccc1Nc1cc(NC(=O)C2CC2)ncn1)S(C)(=O)=O` [Example 14, N-[6-[2-[methyl(methylsulfonyl)amino]anilino]pyrimidin-4-yl]cyclopropanecarboxamide], the IC50 in test [1] lay within 100 to 1000 nM. This molecule had a Kd in test [2] of 0.2 to 1 nM.
For `COc1c(Nc2cc(Nc3cc(C)nc(C)n3)ncn2)cccc1-c1cnn(C)c1` [Example 15, N4-(2,6-dimethylpyrimidin-4-yl)-N6-[2-methoxy-3-(1-methylpyrazol-4-yl)phenyl]pyrimidine-4,6-diamine] the same measures were 10 to 100 nM and 0.2 to 1 nM.
For `COc1c(C#N)cccc1Nc1cc(Nc2cc(C)nc(C)n2)ncn1` [Example 16, 3-[[6-[(2,6-dimethylpyrimidin-4-yl)amino]pyrimidin-4-yl]amino]-2-methoxy-benzonitrile] the same measures were greater than 1000 nM and 1 to 10 nM.
For `COc1c(Nc2cc(Nc3cc(C)nc(C)n3)ncn2)cccc1C(F)(F)F` [Example 18, N6-(2,6-dimethylpyrimidin-4-yl)-N4-[2-methoxy-3-(trifluoromethyl)phenyl] pyrimidine-4,6-diamine] the same measures were greater than 1000 nM and 1 to 10 nM.
On to `COc1c(Nc2cc(Nc3cc(C)nc(C)n3)ncn2)ccc(F)c1F` [Example 19, N4-(3,4-difluoro-2-methoxy-phenyl)-N6-(2,6-dimethylpyrimidin-4-yl)pyrimidine-4,6-diamine], for which, in test [1], the IC50 is greater than 1000 nM. Also, the Kd in test [2] is 1 to 10 nM.
For `COc1cccc(Nc2cc(Nc3cc(C)nc(C)n3)ncn2)c1OC` [Example 20, N4-(2,3-dimethoxyphenyl)-N6-(2,6-dimethylpyrimidin-4-yl)pyrimidine-4,6-diamine], in that order: 100 to 1000 nM and 0.2 to 1 nM.
For `COc1cc(F)ccc1Nc1cc(Nc2cc(C)nc(C)n2)ncn1` [Example 21, N4-(2,6-dimethylpyrimidin-4-yl)-N6-(4-fluoro-2-methoxy-phenyl)pyrimidine-4,6-diamine], the IC50 in test [1] was greater than 1000 nM. The Kd in test [2] lay within 1 to 10 nM.
For `COc1cc(C(F)(F)F)ccc1Nc1cc(Nc2cc(C)nc(C)n2)ncn1` [Example 22, N6-(2,6-dimethylpyrimidin-4-yl)-N4-[2-methoxy-4-(trifluoromethyl)phenyl]pyrimidine-4,6-diamine] the same measures were 100 to 1000 nM and greater than 10 nM.
For `COc1ccccc1Nc1cc(Nc2cc(C)nc(C)n2)ncn1` [Example 23, N6-(2,6-dimethylpyrimidin-4-yl)-N4-(2-methoxyphenyl)pyrimidine-4,6-diamine], in that order: 100 to 1000 nM and 1 to 10 nM.
For `Cc1cc(Nc2cc(Nc3ccc(-c4cncn4C)cc3N(C)S(C)(=O)=O)ncn2)nc(C)n1` [Example 24, N-[2-[[6-[(2,6-dimethylpyrimidin-4-yl)amino]pyrimidin-4-yl]amino]-5-(3-methylimidazol-4-yl)phenyl]-N-methyl-methanesulfonamide] the same measures were 10 to 100 nM and less than 0.2 nM.
Take `COc1cc(C#N)cnc1Nc1cc(Nc2cc(C)nc(C)n2)ncn1` [Example 27, 6-[[6-[(2,6-dimethylpyrimidin-4-yl)amino]pyrimidin-4-yl]amino]-5-methoxy-pyridine-3-carbonitrile]: the IC50 in test [1] was greater than 1000 nM. This molecule also gave a dissociation constant Kd in test [2] greater than 10 nM.
For `Cc1cc(Nc2cc(Nc3ccccc3P(C)(C)=O)ncn2)nc(C)n1` [Example 28, 4-N-(2-dimethylphosphorylphenyl)-6-N-(2,6-dimethylpyrimidin-4-yl)pyrimidine-4,6-diamine], in that order: greater than 1000 nM and 0.2 to 1 nM.
For `COc1c(Nc2cc(Nc3cc(C)nc(C)n3)ncn2)cccc1-c1nc(C(F)(F)F)n(C)n1` [Example 29, N6-(2,6-dimethylpyrimidin-4-yl)-N4-[2-methoxy-3-[1-methyl-5-(trifluoromethyl)-1,2,4-triazol-3-yl]phenyl]pyrimidine-4,6-diamine] the same measures were greater than 1000 nM and 1 to 10 nM.
Take `COCc1nc(-c2cccc(Nc3cc(Nc4cc(C)nc(C)n4)ncn3)c2OC)no1` [Example 30, N4-(2,6-dimethylpyrimidin-4-yl)-N6-[2-methoxy-3-[5-(methoxymethyl)-1,2,4-oxadiazol-3-yl]phenyl]pyrimidine-4,6-diamine]: the IC50 in test [1] is 100 to 1000 nM. The molecule also returned a Kd in test [2] of 0.2 to 1 nM.
Regarding `COc1c(Nc2cc(Nc3cc(C)nc(C)n3)ncn2)cccc1-c1ncc(F)cn1` [Example 31, N4-(2,6-dimethylpyrimidin-4-yl)-N6-[3-(5-fluoropyrimidin-2-yl)-2-methoxy-phenyl]pyrimidine-4,6-diamine], the IC50 in test [1] lay in the range of 100 to 1000 nM. Further, the Kd in test [2] lay in the range of 0.2 to 1 nM.
For `COc1c(Nc2cc(Nc3cc(C)ncn3)ncn2)cccc1-c1ncn(C)n1` [Example 33, N6-[2-methoxy-3-(1-methyl-1,2,4-triazol-3-yl)phenyl]-N4-(6-methylpyrimidin-4-yl)pyrimidine-4,6-diamine] the same measures were 10 to 100 nM and less than 0.2 nM.
For `[2H]C([2H])([2H])N(c1ccccc1Nc1cc(Nc2cc(C)nc(C)n2)ncn1)S(C)(=O)=O` [Example 34, N-[2-[[6-[(2,6-dimethylpyrimidin-4-yl)amino]pyrimidin-4-yl]amino]phenyl]-N-(trideuteriomethyl)methanesulfonamide] the same measures were less than 10 nM and less than 0.2 nM.
For `COc1c(Nc2cc(Nc3cc(C)nc(C)n3)ncn2)cccc1-c1cc(C(F)(F)F)nn1C` [Example 36, N6-(2,6-dimethylpyrimidin-4-yl)-N4-[2-methoxy-3-[2-methyl-5-(trifluoromethyl)pyrazol-3-yl]phenyl]pyrimidine-4,6-diamine], in that order: greater than 1000 nM and 1 to 10 nM.
On to `COc1c(Nc2cc(Nc3cc(C)nc(C)n3)ncn2)cccc1-c1nc(C)n(CC(F)(F)F)n1` [Example 38, N6-(2,6-dimethylpyrimidin-4-yl)-N4-[2-methoxy-3-[5-methyl-1-(2,2,2-trifluoroethyl)-1,2,4-triazol-3-yl]phenyl]pyrimidine-4,6-diamine], for which the IC50 in test [1] lay within 10 to 100 nM. Moreover, the Kd in test [2] was in the range of 0.2 to 1 nM.
For `COc1c(Nc2cc(Nc3cc(C)nc(C)n3)ncn2)cccc1-c1nc(C)n(C)n1` [Example 39, N6-(2,6-dimethylpyrimidin-4-yl)-N4-[3-(1,5-dimethyl-1,2,4-triazol-3-yl)-2-methoxy-phenyl]pyrimidine-4,6-diamine], in that order: 100 to 1000 nM and 0.2 to 1 nM.

For the origin of these results see patent publication EP4206196A1, “PYRIMIDINE SUBSTITUTED DERIVATIVES AS TYK2 INHIBITORS” (Almirall S.A., priority 2021, dated 2023).
